Where two headings read alike, the source gives them in different places.
What was measured:
4T1 breast tumor cells = assay: 4T1 metastatic recurrence after chemotherapy and surgical removal of primary tumor; type: in vivo, mice; details: 100 mg/kg once daily by gavage starting on Day 3, with paclitaxel and surgery; compared to chemotherapy alone, p < 0.05; Day 32
Protocol: Female BALB/c mice (6- to 8-week old) were purchased from Charles River Labs. The 4T1 tumor cells (1 × 10^5) were injected subcutaneously into the abdominal mammary gland area of mice using 0.1 mL of a single-cell suspension in PBS-matrigel (v/v, 1:1) on Day 0 as previously described. […] On Day 28, the mice were sacrificed. […] The numbers of metastatic 4T1 cells in lungs were determined by a clonogenic assay. In brief, the lungs were removed from each mouse, finely minced and digested in 5 mL of an enzyme cocktail containing 1 × PBS and 1 mg/mL collagenase type IV for 2 h at 37 ℃ on a platform rocker. After incubation, samples were filtered through 70-µm nylon cell strainers and washed twice with PBS. The resulting cells were suspended and plated with a series of dilutions in 10-cm tissue culture dishes in DMEM medium containing 60 µM thioguanine for clonogenic growth. As 4T1 tumor cells are resistant to 6-thioguanine, the metastasized tumor cells formed foci after 14 days, at which time they were fixed with 4% paraformaldehyde and stained with crystal violet staining solution for counting. For the experiments in Figure 2F,G, 4T1 tumor cells (1 × 10^5) suspended in PBS-matrigel (v/v, 1:1) were injected subcutaneously into the abdominal mammary gland area of mice on day 0. Starting on Day 3, NP-G2-044 was given to mice once every day by oral gavage at 100 mg kg^−1 per mouse. […]

[1] = test system: NF-κB nuclear translocation in U2932 cells; assay: p65 (NF-κB) nuclear translocation, Western blotting, U2932; type: cell-based; details: 30 µM, 16 h
Protocol: We treated U2932 cells with or without NP-G2-044, and measured the potential effects of NP-G2-044 on various pathways critical for lymphoma cell growth.
The lymphoma cells were plated in 10-cm dish. After culture for 24 h, cells were incubated in serum-free medium for 16 h. Cells were then incubated in growth medium with 30 µM NP-G2-044 or dissolvent for 16 h, followed by collecting whole cell lysates or nuclear extracts as previously described.

[2] = test system: NCI-H660 human neuroendocrine prostate cancer cells; assay: Boyden chamber cell migration assay; type: cell-based; details: about twenty hours, 10% serum, read-out: IC50, tumor cell migration
Text: Cells were stained with crystal violet staining solution, and cells on the upper side of the insert were removed with a cotton swab.

[3] = test system: 4T1 mouse triple-negative breast cancer cells; details: for inhibition of lung metastasis / IC50, metastasized 4T1 cells in the lungs: BALB/c mice, oral; for IC50, metastasized 4T1 cells in the lungs: Day 7 to Day 27
Protocol: In the second orthotopic spontaneous tumor metastasis mouse model, 4T1 mouse triple-negative breast cancer cells were injected into the mammary gland of BALB/c mice, and then the metastasis to the lung was monitored (Figure 2D,E). The 4T1 mouse tumor closely mimics human breast cancer in its anatomical site, immunogenicity, growth characteristics, and metastatic properties. From the mammary gland, the 4T1 tumor spontaneously metastasizes to a variety of target organs including lung, bone, brain, and liver. Seven days after the implantation of 4T1 tumor cells, we orally administered the mice with different concentrations of NP-G2-044 either once a day or twice a day for six days a week. After 28 days, the mice were sacrificed and examined for metastasis in the lungs.
Female BALB/c mice (6- to 8-week old) were purchased from Charles River Labs. The 4T1 tumor cells (1 × 10^5) were injected subcutaneously into the abdominal mammary gland area of mice using 0.1 mL of a single-cell suspension in PBS-matrigel (v/v, 1:1) on Day 0 as previously described. […] On Day 28, the mice were sacrificed. […] The numbers of metastatic 4T1 cells in lungs were determined by a clonogenic assay. In brief, the lungs were removed from each mouse, finely minced and digested in 5 mL of an enzyme cocktail containing 1 × PBS and 1 mg/mL collagenase type IV for 2 h at 37 ℃ on a platform rocker. After incubation, samples were filtered through 70-µm nylon cell strainers and washed twice with PBS. The resulting cells were suspended and plated with a series of dilutions in 10-cm tissue culture dishes in DMEM medium containing 60 µM thioguanine for clonogenic growth. As 4T1 tumor cells are resistant to 6-thioguanine, the metastasized tumor cells formed foci after 14 days, at which time they were fixed with 4% paraformaldehyde and stained with crystal violet staining solution for counting. For the experiments in Figure 2F,G, 4T1 tumor cells (1 × 10^5) suspended in PBS-matrigel (v/v, 1:1) were injected subcutaneously into the abdominal mammary gland area of mice on day 0. Starting on Day 3, NP-G2-044 was given to mice once every day by oral gavage at 100 mg kg^−1 per mouse. A vehicle solvent was given to the control group of mice once every day by gavage. Starting on Day 7, paclitaxel was given to mice twice a week by an intraperitoneal injection at 20 mg kg^−1 per mouse for two weeks. Primary tumors were removed on Day 14. All mice were killed for a clonogenic assay on Day 32.

[4] = test system: 4T1 triple-negative breast cancer cells; set-up: method as in PMID 26081695, PMID 27071719; details: 4T1 cells; cited from earlier work
Ly10 cells = assay: Soft-agar colony formation assay, Ly10; type: cell-based; details: 14 days, dosage-dependent
Protocol: (§1) A total of 1 × or 2 ×10^4 cells were suspended in 0.5 mL of 0.3% low melting point agar (Merck KGaA, Darmstadt, Germany) in RPMI-1640 or DMEM containing 10% FBS and control solvent or the inhibitors. This suspension was overlaid on pre-solidified with 0.6% agar in the same medium in 24-well plates as previously described. Normal growth medium containing control solvent or the inhibitors was gently layered over the cultures every 4 days for 14 days. The colonies were stained with 0.1% crystal violet for 1 h at room temperature and counted under a microscope.

U2932 lymphoma cells = assay: U2932 lymphoma model in NSG mice (tumor growth, liver metastasis, overall survival); type: in vivo
Protocol: For the lymphoma model, U2932 cells (5 × 10^6) suspended in PBS-matrigel (v/v, 1:1) were subcutaneously injected into NSG mice on Say 0. Starting on Day 49, NP-G2-044 was given once a day for 5 days every week by gavage at 300 mg kg^−1 per mouse until their death. Starting on Day 49, LY2409881 was given once weekly by intraperitoneal injection at 50 mg kg^−1 per mouse for 8 times. The control solvent was given according to their body weights until their death. […] The primary tumors and livers shown in the figure were dissected on Day 67.

[5] = test system: MDA-MB-231 triple-negative breast cancer cells; set-up: method as in PMID 26081695, PMID 27071719; details: MDA-MB-231 cells; cited from earlier work
[6] = Plasma protein binding assay with mouse plasma; type: in vitro ADME; details: in the presence of 100% serum
U2932 cells [7] = assay: Cell growth assay, U2932; details: U2932 cells in culture, 4 days
Protocol: We then extended our search to other types of lymphoma cells. […] Both U2932 and Ly10 cells are ABC-subtype DLBCLs, and HT cells are diffuse mixed lymphoma.
For NP-G2-044 dose-dependent studies, 1 × 10^5 Ly10, U2932, or HT cells were seeded in a 12- or 24-well plate on day 0. A total of 1, 3, 10, 30, or 100 μM NP-G2-044 or control solvent was added to the plates. Cells were collected and counted on day 4. For time-dependent studies, 1 × 10^5 Ly10, U2932, or HT cells were seeded in a 12- or 24-well plate on day 0. A total of 30 μM NP-G2-044, 5 μM LY2409881, 30 μM NP-G2-044 plus 5 μM LY2409881, or control solvent was added to the plates. Cells were collected and counted on Days 2 and 4. […] The cell growth index was expressed as the fold changes of cell numbers over the starting cell number. For these assays, the old medium was changed with a fresh medium containing the control solvent or the inhibitors every two days.

HT lymphoma cells = assay: HT lymphoma model in NSG mice (tumor growth, overall survival); type: in vivo; details: 300 mg/kg gavage once a day 5 days every week from day 28, vs control
Protocol: HT cells (5 × 10^6) suspended in PBS-matrigel (v/v, 1: 1) were subcutaneously injected into NSG mice on day 0. Starting on day 28, NP-G2-044 or the control solvent was given once a day for 5 days every week by gavage at 300 mg kg^−1 per mouse until their death.

U2932 cells [8] = assay: Soft-agar colony formation assay, U2932; type: cell-based; details: 14 days, dosage-dependent
Protocol: as §1

[9] = treatment from Day 49, vs control group

Cc1occc1C(=O)Nc1nn(Cc2ccc(C(F)(F)F)cc2)c2ccccc12 [NP-G2-044]
metastatic recurrence of breast tumors in the lung (4T1 breast tumor cells): slowed the metastatic recurrence | nuclear translocation of the p65 subunits [1]: decreased | IC50 [2]: 3 to 5 µM | inhibition of lung metastasis ([3]; 30 mg/kg twice a day): almost complete inhibition | inhibition of lung metastasis ([3]; 300 mg/kg once a day): almost complete inhibition | IC50, metastasized 4T1 cells in the lungs ([3]; once a day): 40 mg/kg | IC50, metastasized 4T1 cells in the lungs ([3]; twice a day): 5 mg/kg | tolerability of dosage regimen ([3]; mouse, in vivo): well tolerated with no signs of overt toxicity | induction of apoptosis [4]: did not induce the apoptosis | number of growing colonies (Ly10 cells): decreased the number of growing colonies | metastasis of implanted lymphoma cells to the liver (U2932 lymphoma cells; livers dissected on Day 67): blocked the metastasis to the liver | increase of median overall survival (U2932 lymphoma cells; [9]): 79% | overall survival (U2932 lymphoma cells; [9]): increased | primary tumor growth (U2932 lymphoma cells; [9]): decreased | induction of apoptosis [5]: did not induce the apoptosis | fraction unbound [6]: ~0.003 | effect on cell growth (U2932 cells [7]): inhibitory effect | primary tumor growth (HT lymphoma cells): decreased | overall survival (HT lymphoma cells; logrank p = 0.002): increased | number of growing colonies (U2932 cells [8]): decreased the number of growing colonies

Source: publication PMC7466159, “Anti-Metastasis Fascin Inhibitors Decrease the Growth of Specific Subtypes of Cancers” (Cancers, 2020)
